The values that follow come from patent publication US6130239A, “4-Alkenyl- and 4-alkynyloxindoles” (Hoffmann-La Roche Inc., priority 1999, dated 2000).

Structures are written as SMILES. Counter-ions that a name gives are not always drawn. Where only a bound is given, the exact number is not on record here.

The target in experiment [1] is T1, Cyclin E/CDK2 (Homo sapiens, UniProt P24941).
T1 construct: made in house; host or cells: insect cells
Briefly: CDK2 FlashPlate Assay (inhibition of Rb phosphorylation by Cyclin E/CDK2). It is filed as biochemical. Conditions: for IC50: Table IA, recombinant human Cyclin E/CDK2, Rb substrate, 25 minutes room temperature.

For experiment [2], the system named is MDA-MB-435. The experiment is described as follows: Cell-based antiproliferative (MTT) assay, MDA-MB-435 breast carcinoma line. Conditions: Homo sapiens, MDA-MB-435, 120 h; 5 days post addition of test compound; mostly one experiment, average where repeated; read-out: MDA-MB435 IC50. The procedure: The estrogen receptor negative epithelial breast carcinoma line (MDA-MB-435) was purchased from American Type Cell Culture Collection (ATCC; Rockville, Md.) and was grown in the medium recommended by ATCC. For analysis of the effect of the test compounds on growth of these cells, the cells were plated at 2000 cells per well in a 96-well tissue culture plate, and were incubated overnight at 37° C. with 5% CO2. The next day, the test compounds were dissolved in 100% dimethyl sulfoxide (DMSO) to yield a 10 mM stock solution. Each compound was diluted with sterile medium to 1 mM in a sufficient quantity to yield a final concentration of 120 μM. The compounds were then serially diluted in medium with 1.2% DMSO. One-fourth final volume of the diluted compounds was transferred to 96 well plates. Test compounds were assayed in duplicate. DMSO was added to a row of "control cells" such that the final concentration of DMSO in each well was 0.3%. Wells to which no cells were added served as the "blank." Wells to which no inhibitor was added served as "no inhibitor control". The plates were returned to the incubator, and 5 days post addition of test compound, were analyzed as described below. […] MTT) was added to each well to yield a final concentration of 1 mg/mL. The plates were then incubated at 37° C. for 3 hours. The plates were centrifuged at 1000 rpm for 5 minutes prior to aspiration of the MTT-containing medium. The MTT-containing medium was then removed and 100 μL 100% ethanol was added to each well to dissolve the resulting formazan metabolite. To ensure complete dissolution, plates were shaken for 15 minutes at room temperature. Absorbencies were read in a microtiter plate reader (Molecular Dynamics) at a wavelength of 570 nm with a 650 nm reference. Percent inhibition was calculated by subtracting the absorbance of the blank (no cell) wells from all wells, then subtracting the division of the average absorbance of each test duplicate by the average of the controls from 1.00. Inhibitory concentrations (IC50) were determined from the linear regression of a plot of the logarithm of the concentration versus the percent inhibition.

Experiment [3] deals with SW480. The experiment is described as follows: Cell-based antiproliferative (MTT) assay, SW480 colon carcinoma line. Conditions: Homo sapiens, SW480, 96 h; 4 days post addition of test compound. On the procedure: The estrogen receptor negative epithelial breast carcinoma line (MDA-MB-435) was purchased from American Type Cell Culture Collection (ATCC; Rockville, Md.) and was grown in the medium recommended by ATCC. For analysis of the effect of the test compounds on growth of these cells, the cells were plated at 2000 cells per well in a 96-well tissue culture plate, and were incubated overnight at 37° C. with 5% CO2. The next day, the test compounds were dissolved in 100% dimethyl sulfoxide (DMSO) to yield a 10 mM stock solution. Each compound was diluted with sterile medium to 1 mM in a sufficient quantity to yield a final concentration of 120 μM. The compounds were then serially diluted in medium with 1.2% DMSO. One-fourth final volume of the diluted compounds was transferred to 96 well plates. Test compounds were assayed in duplicate. DMSO was added to a row of "control cells" such that the final concentration of DMSO in each well was 0.3%. Wells to which no cells were added served as the "blank." Wells to which no inhibitor was added served as "no inhibitor control". The plates were returned to the incubator, and 5 days post addition of test compound, were analyzed as described below.
3-(4,5-Dimethylthiazole-2-yl)-2,5-diphenyl-2H-tetrazolium bromide (thiazolyl blue; MTT) was added to each well to yield a final concentration of 1 mg/mL. The plates were then incubated at 37° C. for 3 hours. The plates were centrifuged at 1000 rpm for 5 minutes prior to aspiration of the MTT-containing medium. The MTT-containing medium was then removed and 100 μL 100% ethanol was added to each well to dissolve the resulting formazan metabolite. To ensure complete dissolution, plates were shaken for 15 minutes at room temperature. Absorbencies were read in a microtiter plate reader (Molecular Dynamics) at a wavelength of 570 nm with a 650 nm reference. Percent inhibition was calculated by subtracting the absorbance of the blank (no cell) wells from all wells, then subtracting the division of the average absorbance of each test duplicate by the average of the controls from 1.00. Inhibitory concentrations (IC50) were determined from the linear regression of a plot of the logarithm of the concentration versus the percent inhibition.
The colon carcinoma line SW480 also was obtained from the ATCC and was tested according to the same protocol provided above with the following modification: cell line SW480 was plated at 1000 cells per well and analyzed at 4 days post addition of test compound.

`CCOC(=O)C(CC#Cc1c(F)ccc2c1/C(=C/c1[nH]cnc1C)C(=O)N2)NC(C)=O` (racemic) [AAA, rac-(Z)-2-(Acetylamino)-5-[5-fluoro-2,3,dihydro-3-[(4-methyl-1H-imidazol-5-yl)methylene]-2-oxo-1H-indol-4-yl]-4-pentynoic acid ethyl ester]: the IC50 in experiment [1] was under 4 µM; in experiment [2] it was under 3.5 µM.
On to `CCC(O)C#Cc1c(F)ccc2c1/C(=C/c1[nH]cnc1C)C(=O)N2` (racemic) [OO, rac-(Z)-1,3-Dihydro-5-fluoro-4-(3-hydroxy-1-pentynyl)-3-[(4-methyl-1H-imidazol-5-yl)methylene]-2H-indol-2-one], for which the IC50 is under 4 µM in experiment [1], under 3.5 µM in experiment [2] and under 1 µM in experiment [3].
The matching figures for `CCC(O)C#Cc1c([N+](=O)[O-])ccc2c1/C(=C/c1[nH]cnc1C)C(=O)N2` (racemic) [PP, rac-(Z)-1,3-Dihydro-4-(3-hydroxy-1-pentynyl)-3-[(4-methyl-1H-imidazol-5-yl)methylene]-5-nitro-2H-indol-2-one]: under 4 µM, under 3.5 µM and under 1 µM.
For `Cc1nc[nH]c1/C=C1\C(=O)Nc2ccc(F)c(C#CCC(C)O)c21` (racemic) [TT, rac-(Z)-1,3-Dihydro-5-fluoro-4-(4-hydroxy-1-pentynyl)-3-[(4-methyl-1H-imidazol-5-yl)methylene]-2H-indol-2-one, trifluoroacetate salt], the IC50 in experiment [1] was under 4 µM; in experiment [2], under 3.5 µM.
For `CCC(N)(C#Cc1c(F)ccc2c1/C(=C/c1[nH]cnc1C)C(=O)N2)CC` [CCC, (Z)-4-[3-Amino-3-ethyl-1-pentynyl]-1,3-dihydro-5-fluoro-3-[(4-methyl-1H-imidazol-5-yl)methylene]-2H-indol-2-one], the IC50 in experiment [3] is under 1 µM.
In the case of `CCN(CC)CC#Cc1c(F)ccc2c1/C(=C/c1[nH]cnc1C)C(=O)N2` [Compound BBB, (Z)-4-[3-(N,N-Diethylamino)-1-propynyl]-1,3-dihydro-5-fluoro-3-[(4-methyl-1H-imidazol-5-yl)methylene]-2H-indol-2-one], the IC50 in experiment [1] was under 4 µM; in experiment [2] it was under 3.5 µM.
The matching figures for `Cc1nc[nH]c1/C=C1\C(=O)Nc2ccc(F)c(C#CCO)c21` [QQ, (Z)-1,3-Dihydro-5-fluoro-4-(3-hydroxy-1-propynyl)-3-[(4-methyl-1H-imidazol-5-yl)methylene]-2H-indol-2-one, trifluoroacetate salt]: under 4 µM and under 3.5 µM.
`CNCC#Cc1c(F)ccc2c1/C(=C/c1[nH]cnc1C)C(=O)N2` [RR, (Z)-1,3-Dihydro-5-fluoro-4-[3-(N-methylamino)-1-propynyl]-3-[(4-methyl-1H-imidazol-5-yl)methylene]-2H-indol-2-one]: the IC50 in experiment [1] was under 4 µM; in experiment [2], under 3.5 µM; in experiment [3], under 1 µM.
Regarding `Cc1nc[nH]c1/C=C1\C(=O)Nc2ccc(F)c(C#CCN(C)C)c21` [UU, (Z)-1,3-Dihydro-4-[3-(N,N-dimethylamino)-1-propynyl]-5-fluoro-3-[(4-methyl-1H-imidazol-5-yl)methylene]-2H-indol-2-one], the concentration for half-maximal inhibition (IC50) in experiment [1] was under 4 µM; in experiment [2], under 3.5 µM.
The matching figures for `Cc1nc[nH]c1/C=C1\C(=O)Nc2ccc(F)c(C#CC(C)(C)N)c21` [VV, (Z)-4-[3-Amino-3-methyl-1-butynyl]-1,3-dihydro-5-fluoro-3-[(4-methyl-1H-imidazol-5-yl)methylene]-2H-indol-2-one]: under 4 µM and under 3.5 µM.
The matching figures for `Cc1nc[nH]c1/C=C1\C(=O)Nc2ccc(F)c(C#CCOC(N)=O)c21` [WW, (Z)-Carbamic acid 3-[2,3-dihydro-3-[(4-methyl-1H-imidazol-5-yl)methylene]-5-fluoro-2-oxo-1H-indol-4-yl]-2-propynyl ester]: under 4 µM and under 3.5 µM.
On the same counts, the results for `Cc1nc[nH]c1/C=C1\C(=O)Nc2ccc(F)c(C#CCN3CCOCC3)c21` [XX, (Z)-1,3-Dihydro-5-fluoro-3-[(4-methyl-1H-imidazol-5-yl)methylene]-4-[3-(4-morpholinyl)-1-propynyl]-2H-indol-2-one] are under 4 µM and under 3.5 µM.
In the case of `COC(=O)NCC#Cc1c(F)ccc2c1/C(=C/c1[nH]cnc1C)C(=O)N2` [YY, (Z)-[3-[2,3-Dihydro-5-fluoro-3-[(4-methyl-1H-imidazol-5-yl)methylene]-2-oxo-1H-indol-4-yl]-2-propynyl]carbamic acid methyl ester], the inhibition at 1 µM in experiment [1] (Table IB, concentration ≤1.0 μM) is over 90%. The IC50 in experiment [2] was under 3.5 µM.

The IC50 is the concentration at which inhibition is half-maximal. As usually defined, the inhibition is the drop in the measured response relative to a control, in per cent. A higher inhibition goes with strong suppression.
